From patent US11041009B2, “Glucose responsive insulin comprising a tri-valent sugar cluster for treatment of diabetes” (Merck Sharp & Dohme Corp., priority 2017, dated 2021) come the findings set out here.

The structures appear in SMILES notation.

The target in assay [1] is T1, Human macrophage mannose receptor 1 (MRC1) (Homo sapiens, UniProt P22897).
T1 sequence (P22897 19-1456): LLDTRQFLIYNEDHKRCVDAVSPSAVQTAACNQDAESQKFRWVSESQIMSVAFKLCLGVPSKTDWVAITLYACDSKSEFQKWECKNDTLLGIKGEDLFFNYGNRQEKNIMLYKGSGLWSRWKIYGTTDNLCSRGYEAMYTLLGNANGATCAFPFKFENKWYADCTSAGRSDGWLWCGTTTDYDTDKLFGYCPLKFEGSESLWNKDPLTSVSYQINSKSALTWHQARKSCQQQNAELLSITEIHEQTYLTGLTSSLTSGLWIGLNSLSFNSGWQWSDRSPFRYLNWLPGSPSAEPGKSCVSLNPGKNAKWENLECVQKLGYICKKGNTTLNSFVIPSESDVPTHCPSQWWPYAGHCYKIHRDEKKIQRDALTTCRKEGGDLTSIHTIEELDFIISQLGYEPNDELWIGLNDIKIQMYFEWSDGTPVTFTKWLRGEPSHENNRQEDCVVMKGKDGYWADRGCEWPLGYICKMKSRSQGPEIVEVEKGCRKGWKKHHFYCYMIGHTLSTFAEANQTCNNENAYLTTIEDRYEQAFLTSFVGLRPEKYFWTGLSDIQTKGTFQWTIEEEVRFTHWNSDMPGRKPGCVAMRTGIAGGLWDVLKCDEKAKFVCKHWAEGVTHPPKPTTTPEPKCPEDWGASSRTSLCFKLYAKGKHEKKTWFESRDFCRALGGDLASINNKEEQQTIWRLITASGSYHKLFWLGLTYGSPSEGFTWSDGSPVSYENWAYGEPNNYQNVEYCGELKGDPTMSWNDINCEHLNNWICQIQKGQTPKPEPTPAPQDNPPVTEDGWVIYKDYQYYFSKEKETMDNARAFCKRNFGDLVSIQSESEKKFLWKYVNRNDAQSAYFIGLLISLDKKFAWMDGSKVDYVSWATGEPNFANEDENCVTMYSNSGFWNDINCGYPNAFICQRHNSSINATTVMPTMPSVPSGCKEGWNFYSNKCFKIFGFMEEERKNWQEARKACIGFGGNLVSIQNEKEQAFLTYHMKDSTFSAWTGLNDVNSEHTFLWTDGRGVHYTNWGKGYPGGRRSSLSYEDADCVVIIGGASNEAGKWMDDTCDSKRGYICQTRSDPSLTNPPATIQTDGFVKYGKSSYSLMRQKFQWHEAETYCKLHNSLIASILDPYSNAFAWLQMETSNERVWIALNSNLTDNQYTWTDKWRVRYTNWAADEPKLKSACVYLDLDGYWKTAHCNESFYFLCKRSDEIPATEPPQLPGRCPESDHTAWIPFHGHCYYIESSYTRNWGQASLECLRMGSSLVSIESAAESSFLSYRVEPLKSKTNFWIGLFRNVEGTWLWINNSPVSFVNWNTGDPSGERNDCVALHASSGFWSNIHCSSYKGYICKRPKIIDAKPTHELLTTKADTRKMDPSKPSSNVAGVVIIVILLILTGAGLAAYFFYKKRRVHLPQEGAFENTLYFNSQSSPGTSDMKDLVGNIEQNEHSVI
In words: MRC1 competition binding assay with Eu-labeled mannosylated-BSA (Methods E and F). To be noted: Method F: MRC1 assay in a 384-well plate; read-out: MRC1 Binding IP‡. The procedure:
Human macrophage mannose receptor 1 (MRC1) Binding Assays were performed as follows.
The competition binding assay for MRC1 utilized a ligand, mannosylated-BSA labeled with the DELFIA Eu-N1-ITC reagent, as reported in the literature. Assay was performed either in a 96-well plate with 100 μL well volume (Method E) or in a 384-well plate with 25 μL well volume (Method F). […] The antibody was incubated in the plate for 1 hr at room temperature with shaking. The plate was washed with wash buffer 3-5 times followed by addition of MRC1 (2 ng/μl final concentration) in PBS containing 1% stabilizer BSA. The plate was incubated at room temperature with gentle shaking for 1 hr. The plate was washed three times with wash buffer. The IOC molecules in 12.5 μL (or 50 μL depending on plate format) buffer at appropriate concentrations were added followed by 12.5 μL (or 50 μL) Eu-mannosylated-BSA (0.1 nM final concentration) in 50 mM Tris, pH 7.5 containing 100 mM NaCl, 5 mM CaCl2, 1 mM MgCl2 and 0.2% stabilizer BSA. The plate was incubated for 2 hrs at room temperature with shaking followed by washing three times with wash buffer. Perkin Elmer Eu-inducer reagent was added and incubated for 30 min at room temperature prior to detection of the Eu signal (Excitation=340 nm: Emission=615 nm).

In a further assay the target is T2, human IR(B) (Homo sapiens, UniProt P06213).
T2 construct: expressed in transfected cells
In words: Insulin Receptor Phosphorylation Assay (MSD pIR assay; Methods A and B). The assay is classed as cell-based. To be noted: Method B: IR phosphorylation assay, 384-well with automated liquid dispense; CHO cells expressing human IR(B); read-out: IR Activation IP†. The procedure:
Insulin Receptor Phosphorylation Assays were performed as follows.
Cells were harvested and frozen in aliquots for use in the MSD pIR assay. Briefly, the frozen cells were plated in either 96-well (40,000 cells/well, Method A) or 384-well (10,000 cells/well, Method B) clear tissue culture plates and allowed to recover. IOC molecules at the appropriate concentrations were added and the cells incubated for 8 min at 37° C. The media was aspirated and chilled MSD cell lysis buffer was added as per MSD kit instructions. The cells were lysed on ice for 40 min and the lysate then mixed for 10 minutes at room temperature. The lysate was transferred to the MSD kit pIR detection plates. The remainder of the assay was carried out following the MSD kit recommended protocol.

T2 sequence (P06213 28-758 limits assumed): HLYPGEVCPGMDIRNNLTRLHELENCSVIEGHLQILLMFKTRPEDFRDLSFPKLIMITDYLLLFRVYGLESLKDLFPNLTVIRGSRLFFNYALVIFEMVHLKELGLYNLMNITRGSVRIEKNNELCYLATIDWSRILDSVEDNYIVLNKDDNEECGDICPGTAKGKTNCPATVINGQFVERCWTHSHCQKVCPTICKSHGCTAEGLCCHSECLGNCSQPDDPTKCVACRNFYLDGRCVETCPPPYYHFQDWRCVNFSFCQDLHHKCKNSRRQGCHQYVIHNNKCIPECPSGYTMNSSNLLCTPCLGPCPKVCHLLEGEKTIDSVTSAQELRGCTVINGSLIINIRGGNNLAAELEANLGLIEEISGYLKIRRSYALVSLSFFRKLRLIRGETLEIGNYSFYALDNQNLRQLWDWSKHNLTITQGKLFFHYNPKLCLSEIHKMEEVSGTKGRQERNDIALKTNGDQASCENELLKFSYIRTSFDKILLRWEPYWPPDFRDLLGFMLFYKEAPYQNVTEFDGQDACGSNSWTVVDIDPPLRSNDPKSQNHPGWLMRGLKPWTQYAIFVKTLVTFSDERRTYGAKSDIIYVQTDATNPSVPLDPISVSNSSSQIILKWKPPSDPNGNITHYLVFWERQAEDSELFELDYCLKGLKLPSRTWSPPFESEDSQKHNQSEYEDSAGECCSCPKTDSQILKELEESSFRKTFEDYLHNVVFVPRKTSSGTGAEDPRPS
T2 sequence (P06213 763-1382 partner limits assumed): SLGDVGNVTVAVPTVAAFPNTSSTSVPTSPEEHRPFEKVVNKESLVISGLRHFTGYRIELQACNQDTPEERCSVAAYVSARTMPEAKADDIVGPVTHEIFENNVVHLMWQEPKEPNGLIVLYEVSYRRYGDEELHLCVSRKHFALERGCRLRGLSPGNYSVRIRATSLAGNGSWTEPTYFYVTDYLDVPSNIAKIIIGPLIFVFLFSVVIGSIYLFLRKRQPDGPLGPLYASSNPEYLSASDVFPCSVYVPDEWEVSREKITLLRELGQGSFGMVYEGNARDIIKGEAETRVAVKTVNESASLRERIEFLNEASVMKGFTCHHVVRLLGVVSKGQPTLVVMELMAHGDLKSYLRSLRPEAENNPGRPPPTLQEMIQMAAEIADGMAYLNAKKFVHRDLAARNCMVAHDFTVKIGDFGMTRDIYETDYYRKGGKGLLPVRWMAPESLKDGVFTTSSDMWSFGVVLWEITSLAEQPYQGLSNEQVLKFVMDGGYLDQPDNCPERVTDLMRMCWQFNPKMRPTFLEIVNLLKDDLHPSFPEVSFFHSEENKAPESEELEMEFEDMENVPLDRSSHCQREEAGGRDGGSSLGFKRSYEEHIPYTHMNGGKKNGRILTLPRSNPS

`CC[C@H](C)[C@H](NC(=O)CN)C(=O)N[C@H](C(=O)N[C@@H](CCC(=O)O)C(=O)N[C@@H](CCC(N)=O)C(=O)N[C@H]1CSSC[C@@H]2NC(=O)[C@H]([C@@H](C)CC)NC(=O)[C@H](CO)NC(=O)[C@H]([C@@H](C)O)NC(=O)[C@H](CSSC[C@H](NC(=O)[C@H](CC(C)C)NC(=O)[C@H](Cc3c[nH]cn3)NC(=O)[C@H](CCC(N)=O)NC(=O)[C@H](CC(N)=O)NC(=O)[C@@H](NC(=O)[C@H](Cc3ccccc3)NC(=O)CCCCC(=O)N(CC(=O)NCCO[C@@H]3O[C@@H](C)[C@@H](O)[C@@H](O)[C@@H]3O)CC(=O)N(CCO[C@H]3O[C@H](CO)[C@@H](O)[C@H](O)[C@@H]3O)CCO[C@H]3O[C@H](CO)[C@@H](O)[C@H](O)[C@@H]3O)C(C)C)C(=O)NCC(=O)N[C@@H](CO)C(=O)N[C@@H](Cc3c[nH]cn3)C(=O)N[C@@H](CC(C)C)C(=O)N[C@@H](C(C)C)C(=O)N[C@@H](CCC(=O)O)C(=O)N[C@@H](C)C(=O)N[C@@H](CC(C)C)C(=O)N[C@@H](Cc3ccc(O)cc3)C(=O)N[C@@H](CC(C)C)C(=O)N[C@@H](C(C)C)C(=O)N[C@H](C(=O)NCC(=O)N[C@@H](CCC(=O)O)C(=O)N[C@@H](CCCNC(=N)N)C(=O)NCC(=O)N[C@@H](Cc3ccccc3)C(=O)N[C@@H](Cc3ccccc3)C(=O)N[C@@H](Cc3ccc(O)cc3)C(=O)N[C@H](C(=O)N3CCC[C@H]3C(=O)N[C@@H](CCCCNC(=O)CCCCC(=O)N(CC(=O)NCCO[C@@H]3O[C@@H](C)[C@@H](O)[C@@H](O)[C@@H]3O)CC(=O)N(CCO[C@H]3O[C@H](CO)[C@@H](O)[C@H](O)[C@@H]3O)CCO[C@H]3O[C@H](CO)[C@@H](O)[C@H](O)[C@@H]3O)C(=O)N[C@H](C(=O)O)[C@@H](C)O)[C@@H](C)O)CSSC[C@@H](C(=O)N[C@@H](CC(N)=O)C(=O)O)NC(=O)[C@H](Cc3ccc(O)cc3)NC(=O)[C@H](CC(N)=O)NC(=O)[C@H](CCC(=O)O)NC(=O)[C@H](CC(C)C)NC(=O)[C@H](CCC(N)=O)NC(=O)[C@H](Cc3ccc(O)cc3)NC(=O)[C@H](CC(C)C)NC(=O)[C@H](CO)NC2=O)NC1=O)C(C)C` [IOC-62]: the IC50 in assay [1] is 5.12 nM. For the same compound, the EC50 at human IR(B) is 0.77 nM.

On to `CC[C@H](C)[C@H](NC(=O)CNC(=O)CCCCC(=O)N(CC(=O)NCCO[C@H]1O[C@H](CO)[C@@H](O)[C@H](O)[C@@H]1O)CC(=O)N(CCO[C@H]1O[C@H](CO)[C@@H](O)[C@H](O)[C@@H]1O)CCO[C@H]1O[C@H](CO)[C@@H](O)[C@H](O)[C@@H]1O)C(=O)N[C@H](C(=O)N[C@@H](CCC(=O)O)C(=O)N[C@@H](CCC(N)=O)C(=O)N[C@H]1CSSC[C@@H]2NC(=O)[C@H]([C@@H](C)CC)NC(=O)[C@H](CO)NC(=O)[C@H]([C@@H](C)O)NC(=O)[C@H](CSSC[C@H](NC(=O)[C@H](CC(C)C)NC(=O)[C@H](Cc3c[nH]cn3)NC(=O)[C@H](CCC(N)=O)NC(=O)[C@H](CC(N)=O)NC(=O)[C@@H](NC(=O)[C@@H](N)Cc3ccccc3)C(C)C)C(=O)NCC(=O)N[C@@H](CO)C(=O)N[C@@H](Cc3c[nH]cn3)C(=O)N[C@@H](CC(C)C)C(=O)N[C@@H](C(C)C)C(=O)N[C@@H](CCC(=O)O)C(=O)N[C@@H](C)C(=O)N[C@@H](CC(C)C)C(=O)N[C@@H](Cc3ccc(O)cc3)C(=O)N[C@@H](CC(C)C)C(=O)N[C@@H](C(C)C)C(=O)N[C@H](C(=O)NCC(=O)N[C@@H](CCC(=O)O)C(=O)N[C@@H](CCCNC(=N)N)C(=O)NCC(=O)N[C@@H](Cc3ccccc3)C(=O)N[C@@H](Cc3ccccc3)C(=O)N[C@@H](Cc3ccc(O)cc3)C(=O)N[C@H](C(=O)N3CCC[C@H]3C(=O)N[C@@H](CCCCNC(=O)CCCCC(=O)N(CC(=O)NCCO[C@H]3O[C@H](CO)[C@@H](O)[C@H](O)[C@@H]3O)CC(=O)N(CCO[C@H]3O[C@H](CO)[C@@H](O)[C@H](O)[C@@H]3O)CCO[C@H]3O[C@H](CO)[C@@H](O)[C@H](O)[C@@H]3O)C(=O)N[C@H](C(=O)O)[C@@H](C)O)[C@@H](C)O)CSSC[C@@H](C(=O)N[C@@H](CC(N)=O)C(=O)O)NC(=O)[C@H](Cc3ccc(O)cc3)NC(=O)[C@H](CC(N)=O)NC(=O)[C@H](CCC(=O)O)NC(=O)[C@H](CC(C)C)NC(=O)[C@H](CCC(N)=O)NC(=O)[C@H](Cc3ccc(O)cc3)NC(=O)[C@H](CC(C)C)NC(=O)[C@H](CO)NC2=O)NC1=O)C(C)C` [IOC-60], for which, in assay [1], the IC50 was 33.1 nM. Moreover, the EC50 at human IR(B) turned out to be 1.85 nM.

For `CC[C@H](C)[C@H](NC(=O)CN)C(=O)N[C@H](C(=O)N[C@@H](CCC(=O)O)C(=O)N[C@@H](CCC(N)=O)C(=O)N[C@H]1CSSC[C@@H]2NC(=O)[C@H]([C@@H](C)CC)NC(=O)[C@H](CO)NC(=O)[C@H]([C@@H](C)O)NC(=O)[C@H](CSSC[C@H](NC(=O)[C@H](CC(C)C)NC(=O)[C@H](Cc3c[nH]cn3)NC(=O)[C@H](CCC(N)=O)NC(=O)[C@H](CC(N)=O)NC(=O)[C@@H](NC(=O)[C@H](Cc3ccccc3)NC(=O)CCCCC(=O)N(CC(=O)NCCO[C@H]3O[C@H](CO)[C@@H](O)[C@H](O)[C@@H]3O)CC(=O)N(CCO[C@H]3O[C@H](CO)[C@@H](O)[C@H](O)[C@@H]3O)CCO[C@H]3O[C@H](CO)[C@@H](O)[C@H](O)[C@@H]3O)C(C)C)C(=O)NCC(=O)N[C@@H](CO)C(=O)N[C@@H](Cc3c[nH]cn3)C(=O)N[C@@H](CC(C)C)C(=O)N[C@@H](C(C)C)C(=O)N[C@@H](CCC(=O)O)C(=O)N[C@@H](C)C(=O)N[C@@H](CC(C)C)C(=O)N[C@@H](Cc3ccc(O)cc3)C(=O)N[C@@H](CC(C)C)C(=O)N[C@@H](C(C)C)C(=O)N[C@H](C(=O)NCC(=O)N[C@@H](CCC(=O)O)C(=O)N[C@@H](CCCNC(=N)N)C(=O)NCC(=O)N[C@@H](Cc3ccccc3)C(=O)N[C@@H](Cc3ccccc3)C(=O)N[C@@H](Cc3ccc(O)cc3)C(=O)N[C@H](C(=O)N3CCC[C@H]3C(=O)N[C@@H](CCCCNC(=O)CCCCC(=O)N(CC(=O)NCCO[C@H]3O[C@H](CO)[C@@H](O)[C@H](O)[C@@H]3O)CC(=O)N(CCO[C@H]3O[C@H](CO)[C@@H](O)[C@H](O)[C@@H]3O)CCO[C@H]3O[C@H](CO)[C@@H](O)[C@H](O)[C@@H]3O)C(=O)N[C@H](C(=O)O)[C@@H](C)O)[C@@H](C)O)CSSC[C@@H](C(=O)N[C@@H](CC(N)=O)C(=O)O)NC(=O)[C@H](Cc3ccc(O)cc3)NC(=O)[C@H](CC(N)=O)NC(=O)[C@H](CCC(=O)O)NC(=O)[C@H](CC(C)C)NC(=O)[C@H](CCC(N)=O)NC(=O)[C@H](Cc3ccc(O)cc3)NC(=O)[C@H](CC(C)C)NC(=O)[C@H](CO)NC2=O)NC1=O)C(C)C` [IOC-61], in assay [1], the IC50 was found to be 17.9 nM. Also, the EC50 on human IR(B) was determined as 1.13 nM.
